Source: patent US9446039B2, “Aminoheteroaryl compounds as MTH1 inhibitors” (CEMM—FORSCHUNGSZENTRUM FÜR MOLEKULARE MEDIZIN GMBH, priority 2012, dated 2016)

What was measured:
Type in all cases: binding
[1] = molecular target: SW480 colon carcinoma cells lysate proteins (Homo sapiens, UniProt P06744); conditions: PreyGene GPI
[2] = molecular target: SW480 colon carcinoma cells lysate proteins (Homo sapiens, UniProt P10412); conditions: PreyGene HIST1H1E
[3] = molecular target: SW480 colon carcinoma cells lysate proteins (Homo sapiens, UniProt P15531); conditions: PreyGene NME1
[4] = molecular target: T1, SW480 colon carcinoma cells lysate proteins (Homo sapiens, UniProt P30101); conditions: PreyGene PDIA3
T1 sequence (P30101 25-505): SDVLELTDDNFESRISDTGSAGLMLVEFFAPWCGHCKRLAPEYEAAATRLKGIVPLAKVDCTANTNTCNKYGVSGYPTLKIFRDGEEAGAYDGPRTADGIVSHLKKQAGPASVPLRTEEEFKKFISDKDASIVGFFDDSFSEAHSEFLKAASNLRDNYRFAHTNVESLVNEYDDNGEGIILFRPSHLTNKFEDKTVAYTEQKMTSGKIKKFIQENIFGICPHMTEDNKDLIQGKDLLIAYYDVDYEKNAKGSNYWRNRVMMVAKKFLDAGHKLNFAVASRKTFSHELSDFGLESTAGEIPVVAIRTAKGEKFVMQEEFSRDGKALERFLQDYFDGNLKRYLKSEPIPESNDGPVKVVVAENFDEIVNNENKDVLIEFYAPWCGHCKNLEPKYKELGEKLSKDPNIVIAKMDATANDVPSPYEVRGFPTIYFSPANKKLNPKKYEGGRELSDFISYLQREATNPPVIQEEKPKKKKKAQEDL

[5] = molecular target: SW480 colon carcinoma cells lysate proteins (Homo sapiens, UniProt P49591); conditions: PreyGene SARS
[6] = molecular target: SW480 colon carcinoma cells lysate proteins (Homo sapiens, UniProt P53999); conditions: PreyGene SUB1
[7] = molecular target: SW480 colon carcinoma cells lysate proteins (Homo sapiens, UniProt Q16555); conditions: PreyGene DPYSL2
[8] = molecular target: SW480 colon carcinoma cells lysate proteins (Homo sapiens, UniProt Q562R1); conditions: PreyGene ACTBL2; SW480 cells
[9] = molecular target: SW480 colon carcinoma cells lysate proteins (Homo sapiens, UniProt Q9BVA1); conditions: PreyGene TUBB2B; SW480 cells
[10] = molecular target: SW480 colon carcinoma cells lysate proteins (Homo sapiens, UniProt Q9NTK5); conditions: PreyGene OLA1; SW480 cells
[11] = molecular target: SW480 colon carcinoma cells lysate proteins (Homo sapiens, UniProt Q9Y490); conditions: PreyGene TLN1
[12] = molecular target: T2, SW480 colon carcinoma cells lysate proteins (Homo sapiens, UniProt Q9Y617); conditions: PreyGene PSAT1
T2 sequence (Q9Y617 1-370): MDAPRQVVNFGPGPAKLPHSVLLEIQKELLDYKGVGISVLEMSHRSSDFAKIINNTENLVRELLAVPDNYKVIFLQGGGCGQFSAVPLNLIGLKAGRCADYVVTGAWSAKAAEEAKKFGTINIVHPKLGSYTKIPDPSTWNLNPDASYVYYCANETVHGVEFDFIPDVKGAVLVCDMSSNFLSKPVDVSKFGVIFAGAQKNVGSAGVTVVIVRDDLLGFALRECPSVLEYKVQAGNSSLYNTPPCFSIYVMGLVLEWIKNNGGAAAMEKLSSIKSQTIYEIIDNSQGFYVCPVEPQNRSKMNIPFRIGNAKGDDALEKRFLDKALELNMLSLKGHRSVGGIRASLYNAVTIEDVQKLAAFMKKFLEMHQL

Chain of SW480 colon carcinoma cells lysate proteins (Homo sapiens, UniProt P15531) (P15531 whole entry): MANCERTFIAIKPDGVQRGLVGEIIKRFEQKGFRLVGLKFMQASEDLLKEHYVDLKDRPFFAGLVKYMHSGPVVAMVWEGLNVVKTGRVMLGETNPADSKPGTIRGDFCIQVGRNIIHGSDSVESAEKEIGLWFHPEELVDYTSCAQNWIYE
Chain of SW480 colon carcinoma cells lysate proteins (Homo sapiens, UniProt P10412) (P10412 whole entry): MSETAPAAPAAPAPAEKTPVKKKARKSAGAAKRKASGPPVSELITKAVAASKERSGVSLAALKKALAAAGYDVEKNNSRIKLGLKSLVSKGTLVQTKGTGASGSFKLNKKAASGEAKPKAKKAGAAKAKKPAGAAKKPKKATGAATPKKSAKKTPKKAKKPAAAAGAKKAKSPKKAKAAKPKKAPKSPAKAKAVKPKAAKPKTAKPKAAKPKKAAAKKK
Chain of SW480 colon carcinoma cells lysate proteins (Homo sapiens, UniProt P49591) (P49591 whole entry, looked up): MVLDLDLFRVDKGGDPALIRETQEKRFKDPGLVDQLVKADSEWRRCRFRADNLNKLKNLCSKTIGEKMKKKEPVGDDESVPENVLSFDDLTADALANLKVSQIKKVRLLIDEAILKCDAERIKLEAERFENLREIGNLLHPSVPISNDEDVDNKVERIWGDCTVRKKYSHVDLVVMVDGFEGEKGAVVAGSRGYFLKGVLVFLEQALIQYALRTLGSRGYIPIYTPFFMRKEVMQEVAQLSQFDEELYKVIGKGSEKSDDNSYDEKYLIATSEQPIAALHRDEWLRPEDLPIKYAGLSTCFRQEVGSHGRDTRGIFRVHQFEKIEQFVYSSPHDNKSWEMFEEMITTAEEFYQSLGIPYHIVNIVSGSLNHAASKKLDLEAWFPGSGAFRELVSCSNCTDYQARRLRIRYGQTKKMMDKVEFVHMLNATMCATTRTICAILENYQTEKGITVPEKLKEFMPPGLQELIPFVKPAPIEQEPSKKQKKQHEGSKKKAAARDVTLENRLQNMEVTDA
Chain of SW480 colon carcinoma cells lysate proteins (Homo sapiens, UniProt Q9BVA1) (Q9BVA1 whole entry): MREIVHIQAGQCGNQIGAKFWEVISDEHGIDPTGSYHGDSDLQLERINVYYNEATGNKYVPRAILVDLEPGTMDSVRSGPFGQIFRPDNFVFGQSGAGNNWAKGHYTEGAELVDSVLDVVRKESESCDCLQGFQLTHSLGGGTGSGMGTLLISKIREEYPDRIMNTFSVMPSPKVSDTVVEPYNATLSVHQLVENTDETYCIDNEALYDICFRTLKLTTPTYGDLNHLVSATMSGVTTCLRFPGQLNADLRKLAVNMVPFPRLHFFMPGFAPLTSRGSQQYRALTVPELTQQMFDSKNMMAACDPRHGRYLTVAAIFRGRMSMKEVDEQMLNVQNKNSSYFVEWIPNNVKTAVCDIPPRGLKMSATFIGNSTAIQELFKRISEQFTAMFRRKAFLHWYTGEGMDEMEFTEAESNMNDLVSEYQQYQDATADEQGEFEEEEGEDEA
Chain of SW480 colon carcinoma cells lysate proteins (Homo sapiens, UniProt Q562R1) (Q562R1 whole entry): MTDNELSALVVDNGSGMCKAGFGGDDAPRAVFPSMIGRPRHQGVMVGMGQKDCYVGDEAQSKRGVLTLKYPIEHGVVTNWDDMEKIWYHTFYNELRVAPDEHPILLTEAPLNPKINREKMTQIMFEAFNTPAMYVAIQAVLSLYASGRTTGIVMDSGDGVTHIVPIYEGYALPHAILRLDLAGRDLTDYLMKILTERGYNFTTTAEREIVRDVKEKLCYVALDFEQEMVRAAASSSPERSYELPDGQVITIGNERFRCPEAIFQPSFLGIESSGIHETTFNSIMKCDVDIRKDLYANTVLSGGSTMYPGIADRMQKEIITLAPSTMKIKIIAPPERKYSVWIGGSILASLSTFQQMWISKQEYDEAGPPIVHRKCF
Chain of SW480 colon carcinoma cells lysate proteins (Homo sapiens, UniProt Q9Y490) (Q9Y490 whole entry): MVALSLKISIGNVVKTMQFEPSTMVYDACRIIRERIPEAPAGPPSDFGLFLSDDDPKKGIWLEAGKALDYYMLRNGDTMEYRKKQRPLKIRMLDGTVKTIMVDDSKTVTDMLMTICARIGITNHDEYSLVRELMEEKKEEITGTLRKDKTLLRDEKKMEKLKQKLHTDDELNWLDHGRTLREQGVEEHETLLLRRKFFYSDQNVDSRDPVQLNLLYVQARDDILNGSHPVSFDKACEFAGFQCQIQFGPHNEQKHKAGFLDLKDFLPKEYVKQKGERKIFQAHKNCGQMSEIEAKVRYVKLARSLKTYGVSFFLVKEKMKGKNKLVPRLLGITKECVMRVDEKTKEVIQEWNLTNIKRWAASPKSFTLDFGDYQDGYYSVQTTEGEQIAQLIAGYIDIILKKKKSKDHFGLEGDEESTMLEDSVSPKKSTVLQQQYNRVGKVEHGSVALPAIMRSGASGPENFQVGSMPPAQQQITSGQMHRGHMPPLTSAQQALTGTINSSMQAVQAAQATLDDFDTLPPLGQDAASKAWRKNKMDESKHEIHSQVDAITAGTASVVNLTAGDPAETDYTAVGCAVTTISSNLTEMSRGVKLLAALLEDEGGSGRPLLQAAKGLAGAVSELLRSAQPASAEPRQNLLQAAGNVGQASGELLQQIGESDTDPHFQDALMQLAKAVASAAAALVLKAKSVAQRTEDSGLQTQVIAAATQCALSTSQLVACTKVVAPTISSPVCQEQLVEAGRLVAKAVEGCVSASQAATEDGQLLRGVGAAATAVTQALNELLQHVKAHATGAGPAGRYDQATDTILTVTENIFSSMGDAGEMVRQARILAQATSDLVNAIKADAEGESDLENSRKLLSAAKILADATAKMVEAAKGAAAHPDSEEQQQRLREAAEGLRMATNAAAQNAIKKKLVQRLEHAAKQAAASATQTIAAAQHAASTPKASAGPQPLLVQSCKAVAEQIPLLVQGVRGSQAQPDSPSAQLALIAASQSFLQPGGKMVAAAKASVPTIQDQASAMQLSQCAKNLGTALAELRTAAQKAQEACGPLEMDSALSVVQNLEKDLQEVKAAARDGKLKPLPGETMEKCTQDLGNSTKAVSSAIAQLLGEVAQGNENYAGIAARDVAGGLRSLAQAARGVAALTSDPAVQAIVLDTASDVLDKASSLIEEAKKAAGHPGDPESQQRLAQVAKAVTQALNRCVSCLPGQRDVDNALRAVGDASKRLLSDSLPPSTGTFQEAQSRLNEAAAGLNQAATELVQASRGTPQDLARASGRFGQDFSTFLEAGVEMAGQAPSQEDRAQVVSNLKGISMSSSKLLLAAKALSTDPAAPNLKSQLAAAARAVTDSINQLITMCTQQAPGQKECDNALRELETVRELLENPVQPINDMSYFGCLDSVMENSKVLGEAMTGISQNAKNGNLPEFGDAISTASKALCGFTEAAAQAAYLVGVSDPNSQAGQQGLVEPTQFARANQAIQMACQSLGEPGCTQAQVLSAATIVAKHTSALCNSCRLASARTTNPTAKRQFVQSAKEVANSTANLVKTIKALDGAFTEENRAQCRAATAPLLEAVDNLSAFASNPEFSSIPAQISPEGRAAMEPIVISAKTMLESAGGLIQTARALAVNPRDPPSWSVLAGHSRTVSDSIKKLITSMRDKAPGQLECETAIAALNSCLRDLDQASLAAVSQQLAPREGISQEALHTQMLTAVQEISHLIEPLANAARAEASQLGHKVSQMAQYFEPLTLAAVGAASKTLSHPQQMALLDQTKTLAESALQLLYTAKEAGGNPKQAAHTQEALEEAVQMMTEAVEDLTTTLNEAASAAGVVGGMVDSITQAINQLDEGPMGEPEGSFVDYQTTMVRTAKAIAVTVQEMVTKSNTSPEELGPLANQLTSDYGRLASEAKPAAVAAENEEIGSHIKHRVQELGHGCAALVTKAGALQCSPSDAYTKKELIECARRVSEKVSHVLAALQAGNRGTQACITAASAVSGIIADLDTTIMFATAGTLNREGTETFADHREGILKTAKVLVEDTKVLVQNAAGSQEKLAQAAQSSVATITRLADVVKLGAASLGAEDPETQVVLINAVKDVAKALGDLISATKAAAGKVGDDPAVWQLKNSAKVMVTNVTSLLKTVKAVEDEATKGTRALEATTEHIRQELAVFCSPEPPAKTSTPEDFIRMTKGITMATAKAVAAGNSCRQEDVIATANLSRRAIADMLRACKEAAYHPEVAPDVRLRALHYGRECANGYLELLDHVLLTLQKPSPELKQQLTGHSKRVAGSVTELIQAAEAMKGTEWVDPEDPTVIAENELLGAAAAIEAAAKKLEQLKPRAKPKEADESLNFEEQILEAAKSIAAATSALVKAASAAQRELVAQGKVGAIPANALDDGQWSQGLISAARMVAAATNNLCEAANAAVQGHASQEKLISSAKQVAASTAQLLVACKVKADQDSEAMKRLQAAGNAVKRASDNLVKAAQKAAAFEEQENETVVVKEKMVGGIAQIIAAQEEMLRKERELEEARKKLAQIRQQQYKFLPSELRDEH
Chain of SW480 colon carcinoma cells lysate proteins (Homo sapiens, UniProt Q9NTK5) (Q9NTK5 whole entry): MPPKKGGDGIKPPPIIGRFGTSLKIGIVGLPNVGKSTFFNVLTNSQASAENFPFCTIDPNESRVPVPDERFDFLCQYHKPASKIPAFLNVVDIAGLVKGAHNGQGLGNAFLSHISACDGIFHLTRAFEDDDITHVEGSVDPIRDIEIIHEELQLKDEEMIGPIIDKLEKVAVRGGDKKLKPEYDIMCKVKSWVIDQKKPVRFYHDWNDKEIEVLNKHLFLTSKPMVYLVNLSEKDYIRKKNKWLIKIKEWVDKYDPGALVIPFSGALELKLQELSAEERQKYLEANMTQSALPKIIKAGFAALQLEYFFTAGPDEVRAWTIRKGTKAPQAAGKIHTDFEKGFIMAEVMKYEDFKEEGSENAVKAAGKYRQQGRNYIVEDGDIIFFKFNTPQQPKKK

C[C@H](Oc1cc(-c2cnn(C3CCNCC3)c2)cnc1N)c1c(Cl)ccc(F)c1Cl [(5)-crizotinib]
10: Sum (SC.Exp.) [3] | Sum (SC.Exp.) [7] | SC.Exp. Sum [9]
7: SC.Exp. 1-2 [4] | SC.Exp. 1-1 [11] | SC.Exp. 1-2 [11]
0.3678: AvgP [7]
14: Sum (SC.Exp.) [11]
8: SC.Exp. 1-1 [4] | Sum (SC.Exp.) [5]
0.2298: AvgP [2]
0: SC.Exp. 2-1 [1] | SC.Exp. 2-2 [1] | SC.Exp. 1-1 [2] | SC.Exp. 2-1 [2] | SC.Exp. 2-1 [3] | SC.Exp. 2-2 [3] | SC.Exp. 2-1 [4] | SC.Exp. 2-2 [4] | SC.Exp. 2-1 [5] | SC.Exp. 2-2 [5] | SC.Exp. 2-1 [7] | SC.Exp. 2-2 [7] | AvgP [8] | SC.Exp. 2-1 [8] | SC.Exp. 2-2 [8] | AvgP [9] | AvgP [10] | SC.Exp. 2-1 [10] | SC.Exp. 2-2 [10] | SC.Exp. 2-1 [11] | SC.Exp. 2-2 [11] | SC.Exp. 2-1 [12] | SC.Exp. 2-2 [12]
0.4939: AvgP [11]
0.206: AvgP [6]
0.4952: AvgP [4]
1: SC.Exp. 1-1 [8] | SC.Exp. 1-2 [8] | SC.Exp. 2-1 [9] | SC.Exp. 1-1 [10] | SC.Exp. 1-2 [10]
6: SC.Exp. 1-1 [3] | SC.Exp. 1-1 [7] | Sum (SC.Exp.) [12]
5: SC.Exp. 1-2 [1] | SC.Exp. 1-1 [6] | SC.Exp. 1-2 [6]
4: SC.Exp. 1-1 [1] | Sum (SC.Exp.) [2] | SC.Exp. 1-2 [3] | SC.Exp. 1-1 [5] | SC.Exp. 1-2 [5] | SC.Exp. 2-2 [6] | SC.Exp. 1-2 [7] | SC.Exp. 1-1 [9]
15: Sum (SC.Exp.) [4]
3: SC.Exp. 1-2 [9] | SC.Exp. 1-1 [12] | SC.Exp. 1-2 [12]
9: Sum (SC.Exp.) [1]
0.3986: AvgP [1]
0.4649: AvgP [5]
0.3916: AvgP [12]
16: Sum (SC.Exp.) [6]
0.4442: AvgP [3]
2: SC.Exp. 1-2 [2] | SC.Exp. 2-2 [2] | SC.Exp. 2-1 [6] | SC.Exp. Sum [8] | SC.Exp. 2-2 [9] | SC.Exp. Sum [10]
